Some results are limits rather than exact numbers.

This passage reports EC50 results from patent publication US10913727B2, “Modulators of the integrated stress pathway” (Calico Life Sciences LLC, priority 2016, dated 2021).

For the assay, the system named is HEK293T cells carrying the ATF4 luciferase reporter. The assay can be described thus: ATF4-Luc assay, in vitro model of Vanishing Cell White Matter Disease (VWMD). The assay is classed as cell-based. As to conditions: Homo sapiens, HEK-293T, 1 μg/mL tunicamycin, 7 hours, One Glo luminescence. In short, it runs like this:
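Stable HEK293T line with human ATF4 5′-UTR–firefly luciferase reporter treated with 1 μg/mL tunicamycin plus 200 nM compound for 7 h. Luminescence read; EC50 derived.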
For `O=C(COc1ccc(Cl)c(F)c1)NC12CCC(NC(=O)c3cc(C(F)F)no3)(CC1)C[C@@H]2O` [Compound 671, N-{(3S)-4-[2-(4-chloro-3-fluorophenoxy)acetamido]-3-hydroxybicyclo[2.2.2]octan-1-yl}-3-(difluoromethyl)-1,2-oxazole-5-carboxamide], the concentration giving a half-maximal response (EC50) (usually the midpoint of the concentration-response curve) is below 50 nM.

Regarding `COc1ccc(C(=O)NC23CC(NC(=O)COc4ccc(Cl)c(F)c4)(C2)C3)cc1OC` [Compound 302, N-{3-[2-(4-chloro-3-fluorophenoxy)acetamido]bicyclo[1.1.1]pentan-1-yl}-3,4-dimethoxybenzamide], the EC50 is above 2000 nM.

Regarding `O=C(COc1ccc(Cl)c(F)c1)NC12CC(NC(=O)c3ccc(CO)cn3)(C1)C2` [Compound 159, N-{3-[2-(4-chloro-3-fluorophenoxy)acetamido]bicyclo[1.1.1]pentan-1-yl}-5-(hydroxymethyl)pyridine-2-carboxamide], the EC50 fell in the range of 250 to 1000 nM.

Regarding `O=C(COc1ccc(Cl)c(Cl)c1)NC12CC(Nc3cnc(C(F)(F)F)cn3)(C1)C2` [Compound 101, 2-(3,4-dichlorophenoxy)-N-(3-{[5-(trifluoromethyl)pyrazin-2-yl]amino}bicyclo-[1.1.1]pentan-1-yl)acetamide], the 50% effective concentration (EC50) is above 2000 nM.

On to `O=C(COc1ccc(Cl)c(Cl)c1)NC12CC(NC(=O)c3nc(C4CC4)cs3)(C1)C2` [Compound 697, 4-cyclopropyl-N-{3-[2-(3,4-dichlorophenoxy)acetamido]bicyclo[1.1.1]pentan-1-yl}-1,3-thiazole-2-carboxamide], for which the half-maximal effective concentration (EC50) was below 50 nM.

Regarding `Cc1cnc(C(=O)NC23CC(NC(=O)COc4ccc(Cl)cc4)(C2)C3)cn1` [Compound 136, N-{3-[2-(4-chlorophenoxy)acetamido]bicyclo[1.1.1]pentan-1-yl}-5-methylpyrazine-2-carboxamide], the EC50 lay within 250 to 1000 nM.

Consider `COc1ncc(F)cc1C(=O)NC12CC(NC(=O)COc3ccc(Cl)c(F)c3)(C1)C2` [Compound 863, N-{3-[2-(4-chloro-3-fluorophenoxy)acetamido]bicyclo[1.1.1]pentan-1-yl}-5-fluoro-2-methoxypyridine-3-carboxamide], for which the EC50 is above 2000 nM.

Take `O=C(COc1ccc2c(c1)OC(F)(F)O2)NC12CCC(NC(=O)c3cccc(F)c3)(CC1)C[C@@H]2O` [Compound 635, N-[(3S)-4-{2-[(2,2-difluoro-2H-1,3-benzodioxol-5-yl)oxy]acetamido}-3-hydroxybicyclo[2.2.2]octan-1-yl]-3-fluorobenzamide]: the EC50 is 250 to 1000 nM.

As to `O=C(COc1ccc(Cl)c(F)c1)NC12CC(NC(=O)c3ccc(Cl)cn3)(C1)C2` [Compound 686, 5-chloro-N-{3-[2-(4-chloro-3-fluorophenoxy)acetamido]bicyclo[1.1.1]pentan-1-yl}pyridine-2-carboxamide], the EC50 was below 50 nM.

For the compound `CC(C)c1cc(C(=O)NC23CC(NC(=O)COc4ccc(Cl)c(F)c4)(C2)C3)no1` [Compound 255, N-{3-[2-(4-chloro-3-fluorophenoxy)acetamido]bicyclo[1.1.1]pentan-1-yl}-5-(propan-2-yl)-1,2-oxazole-3-carboxamide], the EC50 was in the range of 250 to 1000 nM.

For `O=C(COc1ccc(Cl)c(F)c1)NC12CCC(NC(=O)c3cnc4ccccc4n3)(CC1)C(O)C2` (stereo not shown) [Compound 223, N-{4-[2-(4-chloro-3-fluorophenoxy)acetamido]-2-hydroxybicyclo[2.2.2]octan-1-yl}quinoxaline-2-carboxamide], the EC50 was in the range of 50 to 250 nM.

Regarding `O=C(COc1ccc(Cl)c(F)c1)NC12CC(NC(=O)c3cccc(OC(F)F)c3)(C1)C2` [Compound 764, N-{3-[2-(4-chloro-3-fluorophenoxy)acetamido]bicyclo[1.1.1]pentan-1-yl}-3-(difluoromethoxy)benzamide], the EC50 was above 2000 nM.

Turning to `O=C(COc1ccc2c(c1)OC(F)(F)O2)NC12CC(NC(=O)c3ccc(OC(F)(F)F)cn3)(C1)C2` [Compound 378, N-(3-{2-[(2,2-difluoro-2H-1,3-benzodioxol-5-yl)oxy]acetamido}bicyclo[1.1.1]pentan-1-yl)-5-(trifluoromethoxy)pyridine-2-carboxamide], the concentration for a half-maximal effect (EC50) is below 50 nM.
